Experimental data taken from patent publication US20260315499A1, “2'- {HETEROCYCLYL (ARYL/ALKYL) METHYL} - CANNABIDIOL COMPOUNDS AND PROCESS FOR PREPARATION THEREOF” (COUNCIL OF SCIENTIFIC & INDUSTRIAL RESEARCH, priority 2023, published 2026).
“And” between values parts separate entries of the source, which are not always exact repeats. Identical values can stand only once.

Experiments:
p-AKT 473 = assay: Survival pathway protein expression by western blotting in SHSY5Y; type: cell-based, human
Experimental: Here, A1 was tested to find its role in eliciting survival pathway proteins in differentiated human neuroblastoma cells in concentration and time dependent manner.
To investigate the effect of A1 on the survival proteins, […] of survival proteins, including p-Erk 44/42, p-AKT 473, Anti BDNF, and p TrkB 816 and p TrKB 515 by western blotting.

depression mice model [1] = assay: In vivo corticosterone induced depression model: Forced Swim Test; design: species or system mouse (male C57)
Experimental: (§1) In vivo efficacy (ameliorates behavioral despair) of A1 in corticosterone induced model of stress (J. Neurochem., 2018 146, 722 734). […] A1 (20 mg/kg, oral) dissolved in normal saline was given for 3 consecutive weeks following corticosteroid stress. The sucrose preference test was employed, tail suspension test, and forced swim test to evaluate behavioral distress. We noticed that A1 can resurrect mice in stressful situations. […]
The forced swim test was employed to evaluate behavioral melancholy in depressed subjects. Each animal was individually conditioned in a glass cylinder 20 cm long, 10 cm deep and 14 cm radius of curvature. After being submerged in water for 5 mins, the mice's cumulative stationary episode, struggle in water, and eventual floating condition were evaluated. The duration for which the animals were motionless while attempting to hold both of their front limbs still was calculated by interpreting the visualizations portraying behavioral despair (Front Behav Neurosci., 2018, 12, 42).

[2] = In vivo corticosterone induced depression model: effect on body weight; design: species or system mouse (male C57); details: 21 days; for Weight (g) ± SD: A1 20 mg/kg oral, fluoxetine 18 mg/kg
Experimental: as §1

[3] = Cell viability assay in macrophage RAW264.7 cells (MTT); type: cell-based; details: mouse, read-out: % cell viability ± SD
Experimental: RAW264.7 cells were seeded in 96-well cell culture plates at a density of 1×10^4 cells per well and incubated overnight at 37° C. with 5% CO2. Next day, the cells were treated with CBD or its derivatives at 5 μM and/or 10 μM concentration for 24 hrs. The MTT dye (2.5 mg/ml, 20 μL) was added to each well 4 hrs before termination (Molecules. 2022, 27, 8068). After 4 hrs of incubation with MTT, the supernatant was discarded, and the formazan crystals were dissolved by adding 100 μL DMSO. The absorbance was recorded at 540 nm on microplate reader (Tecan Infinite Pro).

depression mice model [4] = assay: In vivo corticosterone induced depression model: Tail Suspension Test (TST); design: species or system mouse (male C57); details: A1 20 mg/kg, fluoxetine 18 mg/kg
Experimental: A1 (20 mg/kg, oral) dissolved in normal saline was given for 3 consecutive weeks following corticosteroid stress. The sucrose preference test was employed, tail suspension test, and forced swim test to evaluate behavioral distress.
Tail Suspension Test (TST) is a behavioral test employed to assess perturbations expected to influence depression like phenotypes. TST is grounded on the reflection that the extent of immobility is allied with depressing phenotype of mice overturned by antidepressants. Mice were positioned 2 cm from their tail tips and 5 cm above the ground suspending the tails using adhesive tape for the free movement (Acta Neuropathol Commun., 2016, 4(1), 108).
The contemporary immobility was alluded to as interruption in motion, where a blind assessor evaluates the disappointed aspect of display before scoring it.

p TrkB 816 = assay: Survival pathway protein expression by western blotting in SHSY5Y; type: cell-based, human; details: for Relative Protein Expression p TrkB 816: A1 + Cort.
[5] = tested on: mouse neuroblastoma cell line N2A; assay: In vitro neuroprotection against corticosterone, differentiated N2A, 48 hrs; type: cell-based; details: test compound 20 μM + Cort. 400 μM, read-out: % Cell viability ± SD, N2A
Experimental: Human neuroblastoma cells (SHSY5Y) and mouse neuroblastoma cells (N2A) were procured from American Type Culture Collection (ATCC). SHSY5Y cell cultures were maintained in DMEM F12 (Invitrogen) whereas N2A were cultured in DMEM (Invitrogen) with 10% Fetal Bovine Serum (Gibco) medium, subjected to differentiation to acquire neuronal morphology (employing differentiation media DMEM-F12, 3-5% FBS, (For differentiation, low concentration of FBS was used) and 50 μM retinoic acid). Differentiated cells were later seeded into 96 well plates, at a density of 1×10^4 before being incubated for 48 hrs with the synthesized library. The exhausted culture media was substituted with new culture media containing 0.5 mg/ml MTT dye. Eventually, the OD at 490 nm excitation was measured using a 96-well plate reader. The proportion of viable cells was determined as percentage of absorbance of untreated cultures relative to control.
In the next attempt, the neuroprotective properties of the generated library (20 μM, 48 hrs) were assessed employing differentiated human neuroblastoma cell line SHSY5Y and mouse neuroblastoma cell line N2A (Biomol Ther., 2022, 30(6), 570-575). The cells were assaulted with the neurotoxic corticosterone (Cort, 400 μM) for 24 hrs after the overnight preincubation of cells with test molecules as a selection criterion. […]

[6] = tested on: differentiated SHSY5Y cell cultures; assay: Neuroprotective potential in differentiated SHSY5Y after 96 hrs, concentration series with and without corticosterone; type: cell-based, human
Text: Furthermore, A1 intervention in presence of corticosterone evidenced neuroprotective effect against corticosterone induced impairment and cell death.

[7] = A1 for multiple time spans, corticosterone

C=C(C)[C@@H]1CCC(C)=C[C@H]1c1c(O)cc(CCCCC)c(CN2CCOCC2)c1O [A1, 2′-(morpholin-1-ylmethyl)-cannabidiol]
Relative Protein Expression PAKT 473 (p-AKT 473; A1 5 μM, 6 hrs): 0.67 | Relative Protein Expression PAKT 473 (p-AKT 473; A1 10 μM, 6 hrs): 1.60 | Relative Protein Expression PAKT 473 (p-AKT 473; A1 + Cort., 0 hr): 1.00 | Relative Protein Expression PAKT 473 (p-AKT 473; A1 + Cort., 0.5 hr): 11.68 | Relative Protein Expression PAKT 473 (p-AKT 473; A1 + Cort., 1 hr): 14.78 | Relative Protein Expression PAKT 473 (p-AKT 473; A1 + Cort., 2 hr): 17.15 | Relative Protein Expression PAKT 473 (p-AKT 473; A1 + Cort., 4 hr): 26.33 | Relative Protein Expression PAKT 473 (p-AKT 473; A1 + Cort., 6 hr): 31.80 | Relative Protein Expression PAKT 473 (p-AKT 473; A1/Cort., A1 5 μM, 6 hrs): 0.60 | Relative Protein Expression PAKT 473 (p-AKT 473; A1/Cort., A1 10 μM, 6 hrs): 1.35 | expression of p-AKT 473 (in words) (p-AKT 473; [7]): remarkably increased | % Immobility (sec) ± SD (dead time) (depression mice model [1]; with Cort.): 17.67 ± 5.12 s | % Latency to immobility (sec) ± SD (depression mice model [1]; with Cort.): 34.06 ± 14.03 s | % Immobility (sec) ± SD (dead time) (depression mice model [1]; without Cort.): 24.22 ± 5.30 s | % Latency to immobility (sec) ± SD (depression mice model [1]; without Cort.): 44.59 ± 19.55 s | toxicity / weight fluctuations (in words) ([2]; 20 mg/kg oral): no discernible toxicity | Weight (g) ± SD ([2]; with Cort. 35 μg/ml): 36.75 ± 3.88 g | Weight (g) ± SD ([2]; without Cort.): 42.88 ± 2.69 g | viability at 24 h, 5 µM ([3]; RAW264.7, 5 μM): 93.1 ± 1.1% | viability at 24 h, 10 µM ([3]; RAW264.7, 10 μM): 83.5 ± 0.6% | % Immobility (sec) ± SD (dead time) (depression mice model [4]; with Cort. 35 μg/ml): 33.05 ± 5.62 s | % Latency to immobility (sec) ± SD (depression mice model [4]; with Cort. 35 μg/ml): 36.90 ± 14.54 s | % Immobility (sec) ± SD (dead time) (depression mice model [4]; without Cort.): 28.76 ± 9.01 s and 28.76 ± 9.10 s | % Latency to immobility (sec) ± SD (depression mice model [4]; without Cort.): 54.35 ± 9.74 s | Relative Protein Expression p TrkB 816 (p TrkB 816; 0 hr): 1.012 | Relative Protein Expression p TrkB 816 (p TrkB 816; 0.5 hr): 1.309 | Relative Protein Expression p TrkB 816 (p TrkB 816; 1 hr): 10.54 | Relative Protein Expression p TrkB 816 (p TrkB 816; 2 hr): 16.76 | Relative Protein Expression p TrkB 816 (p TrkB 816; 4 hr): 23.54 | expression of p TrkB 816 (in words) (p TrkB 816; [7]): remarkably increased | viability at 20 µM [5]: 97.6 ± 1.97% | viability at 1.25 µM ([6]; Homo sapiens, SH-SY5Y, 96 h, A1 1.25 μM + Cort 400 μM, 96 hrs): 83.8% | viability at 2.5 µM ([6]; Homo sapiens, SH-SY5Y, 96 h, A1 2.5 μM + Cort 400 μM, 96 hrs): 93.6% | viability at 10 µM ([6]; Homo sapiens, SH-SY5Y, 96 h, A1 10 μM + Cort 400 μM, 96 hrs): 113% | viability at 20 µM ([6]; Homo sapiens, SH-SY5Y, 96 h, A1 20 μM + Cort 400 μM, 96 hrs): 108% | viability at 40 µM ([6]; Homo sapiens, SH-SY5Y, 96 h, A1 40 μM + Cort 400 μM, 96 hrs): 102% | neuroprotection against corticosterone (in words) ([6]; in presence of corticosterone): substantial level of neuroprotection by significantly lowering the corticosterone cytotoxic activity
